The text below walks through data of publication PMC7570662, “In Vivo Pharmacokinetic Analysis Utilizing Non-Targeted and Targeted Mass Spectrometry and In Vitro Assay against Transient Receptor Potential Channels of Maobushisaishinto and Its Constituent Asiasari Radix” (Molecules, 2020).

One assay deals with T1, human TRPA1 (Homo sapiens, UniProt O75762).
T1 construct: Each full-length human TRPA1, TRPV1, TRPV4, and TRPM8 coding regions were introduced into a pcDNA4/TO vector; expressed in transfected cells; host or cells: T-REx-293 cells (tetracycline-induced, pcDNA4/TO vector)
The assay can be described thus: Ca2+ influx assay in TRPA1-expressing T-REx-293 cells. The settings on record: for activation at 10 µM: T-REx-293, read-out: % of Activation Compared to Positive Control against Each Subfamily of TRP Channel TRPA1; for EC50: dose-response test, Ca2+ influx, read-out: EC50 Value against TRPA1. It counts as cell-based. As for the experimental part:
(§1) Each full-length human TRPA1, TRPV1, TRPV4, and TRPM8 coding regions were introduced into a pcDNA4/TO vector (Thermo Fisher Scientific, Waltham, MA, USA) and transfected into T-REx-293 cells (Thermo Fisher Scientific) to obtain stable cell lines expressing human TRPA1, TRPV1, TRPV4, and TRPM8. Cells were cultured in DMEM with 10% FBS, 4 mmol/L L-glutamine, and penicillin/streptomycin.
(§2) Cells were suspended in medium with 1 µg/mL tetracycline and seeded in poly-D-lysine coated 96-well plate at 2.5 × 10^4 cells/well. After overnight culture, the cells were used for Ca^2+ influx assay.
(§3) The Ca^2+ influx assay was performed using a FLIPR Calcium 5 Assay Kit (Molecular Devices, Sunnyvale, CA, USA) according to previously reported methods with minor modifications. In brief, cells were incubated with 80 µL Ca^2+-chelating dye dissolved in assay buffer at pH 7.4 (Hanks’ Balanced Salt Solution containing 20 mmol/L of N-2-hydroxyethylpiperazine-N’-2-ethanesulfonic acid) at room temperature for 30 min. The plates were assayed using a FlexStation 3 Microplate Reader (Molecular Devices). The fluorescence intensity was traced entirely for 80 s. The baseline of fluorescence was measured for 20 s before adding 20 µL of test compound (final concentration, 10 µmol/L). The response was expressed as percentage activation using the relative fluorescence units (RFU) (% activation = 100 × ((RFUmax − RFUbaseline)/RFUbaseline) − 100). Furthermore, the activities of each test compound against several subfamilies of TRP channels were represented as the relative enhancement of Ca^2+ influx of each positive control, indicated as follows: 20 µmol/L of allyl isothiocyanate (an agonist of TRPA1), 2 µmol/L of capsaicin (an agonist of TRPV1), 4 µmol/L of GSK1016790A (an agonist of TRPV4), and 20 µmol/L of icilin (an agonist of TRPM8). The dose–response curve was fitted to the sigmoidal dose-response equation (top, the max response of each compound), and EC50 values were calculated using GraphPad Prism 7 software (GraphPad, San Diego, CA, USA).

Assay [1] concerns LPS-induced NO production in BV-2 microglial cells. More on the design: method as in PMID 18293448. The settings on record: cited from earlier work.
In a further assay the target is T2, human TRPV1 (Homo sapiens, UniProt Q8NER1).
T2 construct: Each full-length human TRPA1, TRPV1, TRPV4, and TRPM8 coding regions were introduced into a pcDNA4/TO vector; expressed in transfected cells; host or cells: T-REx-293 cells (tetracycline-induced, pcDNA4/TO vector)
The assay can be described thus: Ca2+ influx assay in TRPV1-expressing T-REx-293 cells. Particulars: 10 µmol/L test compound, relative to 2 µmol/L capsaicin; for activation at 10 µM: T-REx-293, read-out: % of Activation Compared to Positive Control against Each Subfamily of TRP Channel TRPV1. It counts as cell-based. As for the experimental part: as §1, §2, §3

For another assay, the target named is T3, human TRPM8 (Homo sapiens, UniProt Q7Z2W7).
T3 construct: Each full-length human TRPA1, TRPV1, TRPV4, and TRPM8 coding regions were introduced into a pcDNA4/TO vector; expressed in transfected cells; host or cells: T-REx-293 cells (tetracycline-induced, pcDNA4/TO vector)
The assay can be described thus: Ca2+ influx assay in TRPM8-expressing T-REx-293 cells. The class given is cell-based. Particulars: 10 µmol/L test compound, relative to 20 µmol/L icilin; for activation at 10 µM: T-REx-293, read-out: % of Activation Compared to Positive Control against Each Subfamily of TRP Channel TRPM8. The protocol:
as §1, §2, §3

[2] abbreviates: 10 µmol/L test compound, relative to 20 µmol/L allyl isothiocyanate.

SMILES strings stand for the structures.

T1 sequence (O75762 whole entry): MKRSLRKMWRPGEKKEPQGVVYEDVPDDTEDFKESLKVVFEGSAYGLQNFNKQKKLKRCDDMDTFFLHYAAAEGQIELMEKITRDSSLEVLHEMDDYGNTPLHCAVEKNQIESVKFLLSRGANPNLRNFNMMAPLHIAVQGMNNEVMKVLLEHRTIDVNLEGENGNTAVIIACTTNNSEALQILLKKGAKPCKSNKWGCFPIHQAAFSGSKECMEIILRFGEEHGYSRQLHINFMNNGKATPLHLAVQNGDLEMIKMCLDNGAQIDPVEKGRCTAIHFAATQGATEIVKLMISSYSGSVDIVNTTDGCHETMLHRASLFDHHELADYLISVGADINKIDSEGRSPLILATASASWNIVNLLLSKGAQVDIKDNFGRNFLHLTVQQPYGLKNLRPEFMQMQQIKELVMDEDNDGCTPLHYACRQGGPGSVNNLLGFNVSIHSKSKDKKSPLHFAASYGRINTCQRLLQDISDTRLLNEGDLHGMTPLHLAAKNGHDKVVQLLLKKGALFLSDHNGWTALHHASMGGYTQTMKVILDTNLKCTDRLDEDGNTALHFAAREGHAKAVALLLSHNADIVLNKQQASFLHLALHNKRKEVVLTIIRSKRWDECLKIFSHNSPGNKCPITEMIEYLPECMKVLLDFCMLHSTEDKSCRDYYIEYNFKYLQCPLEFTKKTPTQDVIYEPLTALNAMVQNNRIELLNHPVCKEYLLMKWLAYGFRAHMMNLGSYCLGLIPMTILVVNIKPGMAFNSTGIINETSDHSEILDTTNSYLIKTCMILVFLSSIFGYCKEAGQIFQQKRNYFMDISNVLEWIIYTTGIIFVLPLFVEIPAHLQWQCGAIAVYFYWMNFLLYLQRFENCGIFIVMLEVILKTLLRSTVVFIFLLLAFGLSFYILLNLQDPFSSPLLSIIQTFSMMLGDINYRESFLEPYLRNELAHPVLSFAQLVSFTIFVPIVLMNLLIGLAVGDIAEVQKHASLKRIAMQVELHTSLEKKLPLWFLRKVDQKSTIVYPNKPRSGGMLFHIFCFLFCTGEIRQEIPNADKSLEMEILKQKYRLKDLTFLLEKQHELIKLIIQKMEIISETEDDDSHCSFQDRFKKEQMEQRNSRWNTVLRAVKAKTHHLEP
T2 sequence (Q8NER1 whole entry): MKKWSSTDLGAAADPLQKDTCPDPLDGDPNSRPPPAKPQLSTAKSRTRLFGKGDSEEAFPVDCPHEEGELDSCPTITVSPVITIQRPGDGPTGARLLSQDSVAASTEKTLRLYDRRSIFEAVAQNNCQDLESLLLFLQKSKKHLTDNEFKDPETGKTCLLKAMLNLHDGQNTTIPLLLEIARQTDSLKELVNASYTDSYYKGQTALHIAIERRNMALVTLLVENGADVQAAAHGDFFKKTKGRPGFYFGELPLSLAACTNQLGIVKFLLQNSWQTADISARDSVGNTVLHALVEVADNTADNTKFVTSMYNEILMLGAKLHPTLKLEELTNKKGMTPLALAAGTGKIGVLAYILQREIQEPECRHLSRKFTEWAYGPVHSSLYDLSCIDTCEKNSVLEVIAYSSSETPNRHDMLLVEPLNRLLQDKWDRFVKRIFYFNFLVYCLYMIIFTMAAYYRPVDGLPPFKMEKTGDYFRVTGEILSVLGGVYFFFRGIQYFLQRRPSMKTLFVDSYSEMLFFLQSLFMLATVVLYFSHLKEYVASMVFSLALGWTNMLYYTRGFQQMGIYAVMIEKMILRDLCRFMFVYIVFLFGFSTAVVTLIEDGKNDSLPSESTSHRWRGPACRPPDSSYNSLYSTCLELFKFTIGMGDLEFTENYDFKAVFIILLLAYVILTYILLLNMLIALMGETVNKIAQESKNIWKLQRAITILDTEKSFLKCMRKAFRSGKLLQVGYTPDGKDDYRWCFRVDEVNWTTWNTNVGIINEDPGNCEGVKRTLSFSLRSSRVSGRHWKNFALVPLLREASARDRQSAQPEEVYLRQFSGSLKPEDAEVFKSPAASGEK
T3 sequence (Q7Z2W7 whole entry): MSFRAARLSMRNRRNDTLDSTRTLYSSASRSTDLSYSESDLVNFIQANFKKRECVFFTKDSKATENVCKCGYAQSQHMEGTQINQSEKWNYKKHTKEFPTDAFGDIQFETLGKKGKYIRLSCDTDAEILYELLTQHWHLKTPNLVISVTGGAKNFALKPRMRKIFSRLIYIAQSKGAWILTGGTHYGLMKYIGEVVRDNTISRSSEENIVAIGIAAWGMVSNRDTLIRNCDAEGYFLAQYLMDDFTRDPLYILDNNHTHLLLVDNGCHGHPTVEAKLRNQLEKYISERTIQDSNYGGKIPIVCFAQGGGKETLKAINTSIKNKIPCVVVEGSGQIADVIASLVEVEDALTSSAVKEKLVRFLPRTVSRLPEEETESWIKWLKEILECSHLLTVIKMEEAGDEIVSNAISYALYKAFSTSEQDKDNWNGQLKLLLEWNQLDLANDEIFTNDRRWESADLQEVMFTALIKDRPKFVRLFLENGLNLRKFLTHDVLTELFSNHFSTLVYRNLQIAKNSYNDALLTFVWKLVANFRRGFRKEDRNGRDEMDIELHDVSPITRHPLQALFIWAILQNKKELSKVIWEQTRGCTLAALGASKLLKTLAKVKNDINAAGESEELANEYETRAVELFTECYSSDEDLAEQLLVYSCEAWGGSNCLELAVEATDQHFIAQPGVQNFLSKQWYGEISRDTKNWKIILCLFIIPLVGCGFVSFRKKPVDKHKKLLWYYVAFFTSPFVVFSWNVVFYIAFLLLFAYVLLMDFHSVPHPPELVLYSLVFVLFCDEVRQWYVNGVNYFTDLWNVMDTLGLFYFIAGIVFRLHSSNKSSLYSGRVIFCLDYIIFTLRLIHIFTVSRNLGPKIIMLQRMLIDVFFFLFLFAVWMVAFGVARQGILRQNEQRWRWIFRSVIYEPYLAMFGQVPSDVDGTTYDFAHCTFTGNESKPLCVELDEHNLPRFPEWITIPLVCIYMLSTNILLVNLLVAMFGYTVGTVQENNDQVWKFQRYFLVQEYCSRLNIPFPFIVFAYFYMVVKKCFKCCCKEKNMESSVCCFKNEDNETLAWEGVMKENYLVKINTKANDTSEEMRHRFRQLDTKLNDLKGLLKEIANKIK

Turning to `C/C=C/C=C\CC/C=C/C=C/C(=O)NCC(C)C` [Amide A, (2E,4E,8Z,10E)-N-isobutyl-2,4,8,10-dodecatetraenamide], the activation at 10 µM was found to be 96% at human TRPA1 (setting [2]), 0.7% at human TRPV1 and 6.1% on human TRPM8. In addition, the EC50 at human TRPA1 is 470 nM. In addition, the “Effect on LPS-induced NO production in BV-2 microglial cells” value in assay [1] was “inhibitory effect”.
For the molecule `c1cc2c(cc1[C@H]1OC[C@H]3[C@@H]1CO[C@H]3c1ccc3c(c1)OCO3)OCO2` [Asarinin, (−)-Asarinin], the activation at 10 µM is 106% on human TRPA1 (setting [2]), -0.4% at human TRPV1 and 1.4% on human TRPM8. The EC50 on human TRPA1 came out at 3100 nM.
Consider `c1cc2c(cc1[C@H]1OC[C@H]3[C@@H]1CO[C@@H]3c1ccc3c(c1)OCO3)OCO2` [Sesamin], for which the values for the activation at 10 µM on human TRPA1 (setting [2]), at human TRPV1 and on human TRPM8 were 106%, -0.1% and -0.8%, respectively. Further, the EC50 on human TRPA1 stood at 2300 nM. In addition, in assay [1], the “Effect on LPS-induced NO production in BV-2 microglial cells” value is “inhibitory effect”.
As for `CCC(=O)c1cc2c(cc1OC)OCO2` [Methyl kakuol], the “% of Activation Compared to Positive Control against Each Subfamily of TRP Channel TRPA1” value on human TRPA1 (setting [2]) stood at 49%. In addition, the EC50 at human TRPA1 is 270 nM. Moreover, the “% of Activation Compared to Positive Control against Each Subfamily of TRP Channel TRPV1” value at human TRPV1 amounted to 0.1%. For the same molecule, the “% of Activation Compared to Positive Control against Each Subfamily of TRP Channel TRPM8” value on human TRPM8 turned out to be 2.8%.

A word on the EC50: it is the concentration giving half of the maximal effect.
